Drawing on patent publication US20250270217A1, “IMIDAZ0[1,2-A]PYRIMIDINE-5(1 H)-ONES HAVING A COVALENT WARHEAD AT THE 3-POSITION AS WRN INHIBITORS” (Incyte Corporation, priority 2023, published 2025), this text covers IC50 for 15 molecules.

Test [1] concerns the target T1, WRN (Homo sapiens, UniProt Q14191).
T1 construct: A His-tagged construct of WRN (AA S2-S1235) was produced and used for the ATPase assay; His; made in house; host or cells: Sf9 insect cells (baculovirus)
As to the kind of experiment: WRN ATPase activity assay (ADP-Glo). Particulars: 1-hr pre-incubation with enzyme; 100 μM ATP, 25 nM forked dsDNA, 1 nM WRN; geometric mean of at least 2 replicates. Format: biochemical. As to the method:
Compounds of the Examples were tested for WRN ATPase activity. WRN ATPase activity catalyzes ATP hydrolysis to produce ADP and phosphate. DNA encoding the target protein, 6×HIS-TEV-WRN-517-945, was produced, cloned and transfected as detailed in Example D. The amount of ADP produced was measured using ADP-Glo™ Kinase Assay kit from Promega Corporation in a Greiner white regular volume 384 wells assay plate (Greiner #781075). Data was normalized to a standard curve generated using various ADP concentrations and the corresponding luminescent signal intensities at each concentration. The assay conditions were optimized for enzyme concentration (WRN), substrate concentrations (ATP & dsDNA), and the linearity of the ATPase reaction, in the following assay buffer: 50 mM Tris-HCl, pH-7.5, 2 mM MgCl2, 50 mM NaCl, 1 mM EGTA, 0.01% P-20, 0.05% BSA, and 2 mM DTT prepared with nuclease free water.
A serial dilution (1:3 scheme) of the compounds were prepared in neat DMSO, with 100 nL of the compounds dispensed in the 384 wells assay plate. An 1-hr pre-incubation of the compounds with enzyme was included. A His-tagged construct of WRN (AA S2-S1235) was produced and used for the ATPase assay. Maximum inhibition control wells were set up with the addition of only assay buffer, and no inhibition control wells were set up with neat DMSO without test compounds. The reaction was initiated by addition of 5 μL substrate mix (200 μM ultrapure ATP, and 50 nM dsDNA prepared in assay buffer) and incubated at 25° C. for 35 min. A forked dsDNA oligomer substrate was prepared by annealing equal amounts of oligo GPat-1 ([BHQ2][…]) and oligo GPat-2 ([…][TAM]) and was used as dsDNA substrate for WRN ATPase assay. A typical ATPase reaction consists of 25 nM forked dsDNA, 100 μM ATP, and 1 nM WRN prepared in assay buffer. The WRN ATPase reaction was stopped by the addition of 5 μL of ADP-Glo Reagent from ADP-Glo™ Kinase Assay kit and incubated for 40 min to deplete the unreacted ATP. Afterwards, 5 μL of Kinase Detection Reagent from the ADP-Glo™ Kinase Assay kit was added and incubated for 1 hr for the development of luminescence signal.
Luminesce signals were measured on BMG PHERAstar FSX using luminescence protocol. Data analysis was carried out using Genedata software following % of control normalization. Fitting parameters include dose response IC50, Hill slope (n), maximum inhibition (S∞), and minimum inhibition (S0). The reported IC50 values for compounds in this invention are the geometric means of at least 2 independent replicates.

The target in test [2] is T1, WRN. The test can be described thus: WRN Helicase activity assay (fluorescence DNA unwinding). Format: biochemical. Particulars: 1-hr pre-incubation with enzyme; 100 μM ATP, 25 nM forked dsDNA, 1 nM WRN; geometric mean of at least 2 replicates. As to the method: Compounds of the examples were tested for WRN helicase activity. DNA encoding the target protein, 6×HIS-TEV-WRN-517-945, was produced, cloned and transfected as detailed in Example D. To determine the inhibitory properties of the compounds, a 384 wells plate-based Helicase assay was set up to measure the extent of DNA unwinding (Helicase) activity of WRN. The WRN Helicase assay was designed to measure increase in fluorescence signal using a fluorescence based, donor-quencher paired forked dsDNA oligomer substrate (custom synthesis from Sigma-Aldrich) prepared by annealing equal amounts of oligo GPat-1 ([BHQ2][…]) and oligo GPat-2 ([…][TAM]). Continuous measurement of fluorescent signal was used to optimize the buffer conditions, concentration of enzyme (WRN), concentration of substrates (ATP & dsDNA), and the linearity of the Helicase reaction. All solutions were prepared in the following assay buffer: 50 mM Tris-HCl, pH-7.5, 2 mM MgCl2, 50 mM NaCl, 1 mM EGTA, 0.01% P-20, 0.05% BSA, and 2 mM DTT prepared with nuclease free water.
A serial dilution (1:3 scheme) of the compounds was prepared in neat DMSO and 100 nL of the compounds was dispensed in the Greiner black low volume (Greiner #784076) 384 wells assay plate. An 1-hr pre-incubation of the compounds with enzyme was included. A His-tagged construct of WRN (AA S2-S1235) was produced and used for the ATPase assay. Maximum inhibition control wells were set up with the addition of only assay buffer, and no inhibition control wells were set up with neat DMSO without test compounds. The reaction was initiated by addition of 5 μL substrate mix (200 μM ultrapure ATP, and 50 nM dsDNA prepared in assay buffer) and incubated at 25° C. for 35 min. A typical Helicase reaction consists of 25 nM forked dsDNA, 100 μM ATP, and 1 nM WRN prepared in assay buffer. The WRN Helicase reaction was quenched by the addition of 5 μL ‘STOP’ solution containing 100 mM EDTA (final EDTA concentration 33.33 mM) prepared in assay buffer. The plates were read on BMG PHERAstar FSX using 540/590 module to measure an increase of fluorescence. Data analysis was carried out using the Genedata software following % of control normalization. Fitting parameters include dose response IC50, Hill slope (n), maximum inhibition (S∞), and minimum inhibition (S0). The reported IC50 values for compounds in this invention are the geometric means of at least 2 independent replicates.

pIC50: −log10 of the molar value.

T1 sequence (Q14191 2-1235): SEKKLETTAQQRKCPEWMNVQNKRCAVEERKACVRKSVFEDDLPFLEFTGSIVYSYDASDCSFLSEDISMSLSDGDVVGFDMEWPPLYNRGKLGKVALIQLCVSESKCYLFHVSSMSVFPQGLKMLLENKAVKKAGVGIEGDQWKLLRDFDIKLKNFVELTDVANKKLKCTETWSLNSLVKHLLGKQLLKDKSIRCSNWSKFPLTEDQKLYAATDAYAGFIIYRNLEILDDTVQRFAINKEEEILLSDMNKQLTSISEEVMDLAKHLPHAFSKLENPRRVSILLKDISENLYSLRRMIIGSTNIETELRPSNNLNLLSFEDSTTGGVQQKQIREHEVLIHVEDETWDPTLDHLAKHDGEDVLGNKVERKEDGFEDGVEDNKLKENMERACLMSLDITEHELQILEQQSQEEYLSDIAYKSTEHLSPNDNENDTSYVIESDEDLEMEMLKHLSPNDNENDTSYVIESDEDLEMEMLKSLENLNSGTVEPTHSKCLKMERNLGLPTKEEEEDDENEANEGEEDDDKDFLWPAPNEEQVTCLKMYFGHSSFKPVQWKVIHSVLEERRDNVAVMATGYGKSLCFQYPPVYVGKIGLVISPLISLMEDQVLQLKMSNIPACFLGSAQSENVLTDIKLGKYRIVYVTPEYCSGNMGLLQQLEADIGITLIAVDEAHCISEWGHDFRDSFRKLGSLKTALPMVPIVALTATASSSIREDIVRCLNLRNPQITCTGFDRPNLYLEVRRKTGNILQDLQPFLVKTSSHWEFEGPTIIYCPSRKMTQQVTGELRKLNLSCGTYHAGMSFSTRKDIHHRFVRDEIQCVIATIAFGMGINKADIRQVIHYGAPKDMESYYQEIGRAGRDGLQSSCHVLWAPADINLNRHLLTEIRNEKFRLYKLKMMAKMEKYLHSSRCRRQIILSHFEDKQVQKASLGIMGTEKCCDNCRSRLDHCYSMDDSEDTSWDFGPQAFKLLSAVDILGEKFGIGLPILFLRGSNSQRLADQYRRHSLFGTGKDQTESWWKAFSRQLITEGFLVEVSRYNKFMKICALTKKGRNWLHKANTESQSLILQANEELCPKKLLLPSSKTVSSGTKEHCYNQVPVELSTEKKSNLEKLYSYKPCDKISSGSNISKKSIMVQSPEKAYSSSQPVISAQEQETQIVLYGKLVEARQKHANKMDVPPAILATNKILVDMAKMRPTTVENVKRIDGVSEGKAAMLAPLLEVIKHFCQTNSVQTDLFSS

As for `C=CC(=O)Nc1ccccc1-c1c(CC)nc2n(CC(=O)Nc3ccc(C(F)(F)F)cc3)c(C)cn2c1=O` [Example 1, N-(2-(7-Ethyl-2-methyl-5-oxo-1-(2-oxo-2-((4-(trifluoromethyl)phenyl)amino)ethyl)-1,5-dihydroimidazo[1,2-a]pyrimidin-6-yl)phenyl)acrylamide], the negative logarithm of the IC50 (pIC50) at WRN [1] and at WRN [2] was above 7.00 each time.
Regarding `C=CC(=O)Nc1ccccc1-c1c(CC)nc2n(CC(=O)Nc3ccc(C(F)(F)F)cc3Cl)c(C)cn2c1=O` [Example 2, N-(2-(1-(2-((2-Chloro-4-(trifluoromethyl)phenyl)amino)-2-oxoethyl)-7-ethyl-2-methyl-5-oxo-1,5-dihydroimidazo[1,2-a]pyrimidin-6-yl)phenyl)acrylamide], the negative logarithm of the IC50 (pIC50) against WRN [1] and against WRN [2] was above 7.00 in each case.
In the case of `C=CC(=O)Nc1cc(S(C)(=O)=O)ccc1-c1c(CC)nc2n(CC(=O)Nc3ccc(C(F)(F)F)cc3)c(C)cn2c1=O` [Example 3, N-(2-(7-Ethyl-2-methyl-5-oxo-1-(2-oxo-2-((4-(trifluoromethyl)phenyl)amino)ethyl)-1,5-dihydroimidazo[1,2-a]pyrimidin-6-yl)-5-(methylsulfonyl)phenyl)acrylamide], the pIC50 at WRN [1] and against WRN [2] was above 7.00 throughout.
Turning to `C=CC(=O)Nc1ncccc1-c1c(CC)nc2n(CC(=O)Nc3ccc(C(F)(F)F)cc3)c(C)cn2c1=O` [Example 4, N-(3-(7-Ethyl-2-methyl-5-oxo-1-(2-oxo-2-((4-(trifluoromethyl)phenyl)amino)ethyl)-1,5-dihydroimidazo[1,2-a]pyrimidin-6-yl)pyridin-2-yl)acrylamide], the pIC50 against WRN [1] and at WRN [2] was above 7.00 in each case.
For `C=CC(=O)Nc1cc(-c2cnn(C)c2)ccc1-c1c(CC)nc2n(CC(=O)Nc3ccc(C(F)(F)F)cc3)c(C)cn2c1=O` [Example 5, N-(2-(7-Ethyl-2-methyl-5-oxo-1-(2-oxo-2-((4-(trifluoromethyl)phenyl)amino)ethyl)-1,5-dihydroimidazo[1,2-a]pyrimidin-6-yl)-5-(1-methyl-1H-pyrazol-4-yl)phenyl)acrylamide], the pIC50 against WRN [1] and against WRN [2] was above 7.00 in each case.
On to `C=CS(=O)(=O)Nc1ccccc1-c1c(CC)nc2n(CC(=O)Nc3ccc(C(F)(F)F)cc3)c(C)cn2c1=O` [Example 6, 2-(7-Ethyl-2-methyl-5-oxo-6-(2-(vinylsulfonamido)phenyl)imidazo[1,2-a]pyrimidin-1(5H)-yl)-N-(4-(trifluoromethyl)phenyl)acetamide], for which the pIC50 against WRN [1] and against WRN [2] was above 7.00 throughout.
Consider `CCc1nc2n(CC(=O)Nc3ccc(C(F)(F)F)cc3)c(C)cn2c(=O)c1-c1ccccc1NC(=O)CCl` [Example 7, 2-Chloro-N-(2-(7-ethyl-2-methyl-5-oxo-1-(2-oxo-2-((4-(trifluoromethyl)phenyl)amino)ethyl)-1,5-dihydroimidazo[1,2-a]pyrimidin-6-yl)phenyl)acetamide], for which the pIC50 against WRN [1] and against WRN [2] was above 7.00 each time.
With `C=CC(=O)Nc1cc(C(=O)NC2CC2)ccc1-c1c(CC)nc2n(CC(=O)Nc3ccc(C(F)(F)F)cc3)c(C)cn2c1=O` [Example 8, 3-Acrylamido-N-cyclopropyl-4-(7-ethyl-2-methyl-5-oxo-1-(2-oxo-2-((4-(trifluoromethyl)phenyl)amino)ethyl)-1,5-dihydroimidazo[1,2-a]pyrimidin-6-yl)benzamide], the negative logarithm of the IC50 (pIC50) against WRN [1] and at WRN [2] was above 7.00 throughout.
Take `C=CC(=O)Nc1cc(C(=O)NC2CC2)ccc1-c1c(CC)nc2n(CC(=O)Nc3ccc(F)cc3Cl)c(C)cn2c1=O` [Example 9, 3-Acrylamido-4-(1-(2-((2-chloro-4-fluorophenyl)amino)-2-oxoethyl)-7-ethyl-2-methyl-5-oxo-1,5-dihydroimidazo[1,2-a]pyrimidin-6-yl)-N-cyclopropylbenzamide]: the negative-log IC50 (pIC50) against WRN [1] and at WRN [2] was above 7.00 in each case.
On to `C=CC(=O)Nc1cc(C(=O)NC2(C)CC2)ccc1-c1c(CC)nc2n(CC(=O)Nc3ccc(C(F)(F)F)cc3)c(C)cn2c1=O` [Example 10, 3-Acrylamido-4-(7-ethyl-2-methyl-5-oxo-1-(2-oxo-2-((4-(trifluoromethyl)phenyl)amino)ethyl)-1,5-dihydroimidazo[1,2-a]pyrimidin-6-yl)-N-(1-methylcyclopropyl)benzamide], for which the pIC50 at WRN [1] and at WRN [2] was above 7.00 throughout.
On to `C=CC(=O)Nc1cc(C(=O)NCC(F)F)ccc1-c1c(CC)nc2n(CC(=O)Nc3ccc(C(F)(F)F)cc3)c(C)cn2c1=O` [Example 11, 3-Acrylamido-N-(2,2-difluoroethyl)-4-(7-ethyl-2-methyl-5-oxo-1-(2-oxo-2-((4-(trifluoromethyl)phenyl)amino)ethyl)-1,5-dihydroimidazo[1,2-a]pyrimidin-6-yl)benzamide], for which the pIC50 at WRN [1] and at WRN [2] was above 7.00 each time.
Take `C#CCNC(=O)c1ccc(-c2c(CC)nc3n(CC(=O)Nc4ccc(C(F)(F)F)cc4)c(C)cn3c2=O)c(NC(=O)C=C)c1` [Example 12, 3-Acrylamido-4-(7-ethyl-2-methyl-5-oxo-1-(2-oxo-2-((4-(trifluoromethyl)phenyl)amino)ethyl)-1,5-dihydroimidazo[1,2-a]pyrimidin-6-yl)-N-(prop-2-yn-1-yl)benzamide]: the pIC50 against WRN [1] and against WRN [2] was above 7.00 throughout.
In the case of `C=CC(=O)Nc1cc(C(=O)NC2CCOCC2)ccc1-c1c(CC)nc2n(CC(=O)Nc3ccc(C(F)(F)F)cc3)c(C)cn2c1=O` [Example 13, 3-Acrylamido-4-(7-ethyl-2-methyl-5-oxo-1-(2-oxo-2-((4-(trifluoromethyl)phenyl)amino)ethyl)-1,5-dihydroimidazo[1,2-a]pyrimidin-6-yl)-N-(tetrahydro-2H-pyran-4-yl)benzamide], the negative logarithm of the IC50 (pIC50) on WRN [1] and against WRN [2] was above 7.00 in each case.
Turning to `C=CC(=O)Nc1ccccc1-c1c(CC)nc2n(CC(=O)Nc3ccc(C(F)(F)F)cc3)c(C)c(C3CC3)n2c1=O` [Example 14, N-(2-(3-Cyclopropyl-7-ethyl-2-methyl-5-oxo-1-(2-oxo-2-((4-(trifluoromethyl)phenyl)amino)ethyl)-1,5-dihydroimidazo[1,2-a]pyrimidin-6-yl)phenyl)acrylamide], the negative-log IC50 (pIC50) on WRN [1] and against WRN [2] was above 7.00 throughout.
Take `C=CC(=O)Nc1ccccc1-c1c(CC)nc2n(CC(=O)Nc3ccc(C(F)(F)F)cc3)c(C)c(-c3ccccc3)n2c1=O` [Example 15, N-(2-(7-Ethyl-2-methyl-5-oxo-1-(2-oxo-2-((4-(trifluoromethyl)phenyl)amino)ethyl)-3-phenyl-1,5-dihydroimidazo[1,2-a]pyrimidin-6-yl)phenyl)acrylamide]: the pIC50 against WRN [1] and against WRN [2] was above 7.00 throughout.
